Experimental findings from patent publication US6110949A, “N-(substituted glycyl)-4-cyanothiazolidines, pharmaceutical compositions containing them and their use in inhibiting dipeptidyl peptidase-IV” (Novartis AG, priority 1999, dated 2000) are described below.

What all share (assay type): biochemical
Assay [1] concerns the target T1, DPP-IV (Caco-2 cell extract) (Homo sapiens, UniProt P27487).
T1 construct: adding 20 μg solubilized Caco-2 protein; endogenous in cells; host or cells: Caco-2 (ATCC HTB 37), differentiated to induce DPP-IV expression; nonidet-P40 extract
The assay can be described thus: Caco-2 DPP-IV Assay (inhibition of DPP-IV activity from human colonic carcinoma cell extracts). The settings on record: substrate H-Alanine-Proline-pNA, pH 7.4, room temperature, 10 minutes. The text has this: As indicated above, all of the compounds of formula I, and their corresponding pharmaceutically acceptable acid addition salts, are useful in inhibiting DPP-IV. […] The human colonic carcinoma cell line Caco-2 was obtained from the American Type Culture Collection (ATCC HTB 37). Differentiation of the cells to induce DPP-IV expression was accomplished as described by Reisher, et al. in an article entitled "Increased expression of . . . intestinal cell line Caco-2" in Proc. Natl. Acad. Sci., Vol. 90, pgs. 5757-5761 (1993). Cell extract is prepared from cells solubilized in 10 mM Tris-HCl, 0.15 M NaCl, 0.04 t.i.u. aprotinin, 0.5% nonidet-P40, pH 8.0, which is centrifuged at 35,000 g for 30 min. at 4° C. to remove cell debris. The assay is conducted by adding 20 μg solubilized Caco-2 protein, diluted to a final volume of 125 μl in assay buffer (25 mM Tris-HCl pH 7.4, 140 mM NaCl, 10 mM KCl, 1% bovine serum albumin) to microtiter plate wells. The reaction is initiated by adding 25 μl of 1 mM substrate (H-Alanine-Proline-pNA; pNA is p-nitroaniline). The reaction is run at room temperature for 10 minutes after which time a 19 μl volume of 25% glacial acetic acid is added to stop the reaction. Test compounds are typically added as 30 μl additions and the assay buffer volume is reduced to 95 μl. A standard curve of free p-nitroaniline is generated using 0-500 μM solutions of free pNA in assay buffer. The curve generated is linear and is used for interpolation of substrate consumption (catalytic activity in nmoles substrate cleaved /min). The endpoint is determined by measuring absorbance at 405 nm in a Molecular Devices UV Max microtiter plate reader. The potency of the test compounds as DPP-IV inhibitors, expressed as IC50, is calculated from 8-point, dose-response curves using a 4-parameter logistic function.

A further assay addresses T2, human plasma DPP-IV (Homo sapiens, UniProt P27487).
T2 construct: from tissue; host or cells: human plasma
The assay can be described thus: Inhibition of DPP-IV activity in human plasma. To be noted: substrate H-Glycine-Proline-AMC, pH 7.8, room temperature, 20 min. On the procedure: (§1) 192-197 (1992). Briefly, five μl of plasma are added to 96-well flat-bottom mictotiter plates (Falcon), followed by the addition of 5 μl of 80 mM MgCI2 in incubation buffer (25 mM HEPES, 140 mM NaCl, 1% RIA-grade BSA, pH 7.8). After a 5 min. incubation at room temperature, the reaction is initiated by the addition of 10 μl of incubation buffer containing 0.1 mM substrate (H-Glycine-Proline-AMC; AMC is 7-amino-4-methylcoumarin). The plates are covered with aluminum foil (or kept in the dark) and incubated at room temperature for 20 min. After the 20 min. reaction, fluorescence is measured using a CytoFluor 2350 fluorimeter (Excitation 380 nm Emission 460 nm; sensitivity setting 4). Test compounds are typically added as 2 μl additions and the assay buffer volume is reduced to 13 μl. A fluorescence-concentration curve of free AMC is generated using 0-50 μM solutions of AMC in assay buffer. The curve generated is linear and is used for interpolation of substrate consumption (catalytic activity in nmoles substrate cleaved/min). As with the previous assay, the potency of the test compounds as DPP-IV inhibitors, expressed as IC50, is calculated from 8-point, dose-response curves using a 4 parameter logistic function.

The next assay has as its target T3, rat plasma DPP-IV (Rattus norvegicus, UniProt P14740).
T3 construct: from tissue; host or cells: rat plasma
The assay can be described thus: Inhibition of DPP-IV activity in rat plasma. To be noted: substrate H-Glycine-Proline-AMC, pH 7.8, room temperature, 20 min. As for the experimental part: as §1

Where a name gives a salt, the structure may show the parent alone.

T1 sequence (P27487 whole entry): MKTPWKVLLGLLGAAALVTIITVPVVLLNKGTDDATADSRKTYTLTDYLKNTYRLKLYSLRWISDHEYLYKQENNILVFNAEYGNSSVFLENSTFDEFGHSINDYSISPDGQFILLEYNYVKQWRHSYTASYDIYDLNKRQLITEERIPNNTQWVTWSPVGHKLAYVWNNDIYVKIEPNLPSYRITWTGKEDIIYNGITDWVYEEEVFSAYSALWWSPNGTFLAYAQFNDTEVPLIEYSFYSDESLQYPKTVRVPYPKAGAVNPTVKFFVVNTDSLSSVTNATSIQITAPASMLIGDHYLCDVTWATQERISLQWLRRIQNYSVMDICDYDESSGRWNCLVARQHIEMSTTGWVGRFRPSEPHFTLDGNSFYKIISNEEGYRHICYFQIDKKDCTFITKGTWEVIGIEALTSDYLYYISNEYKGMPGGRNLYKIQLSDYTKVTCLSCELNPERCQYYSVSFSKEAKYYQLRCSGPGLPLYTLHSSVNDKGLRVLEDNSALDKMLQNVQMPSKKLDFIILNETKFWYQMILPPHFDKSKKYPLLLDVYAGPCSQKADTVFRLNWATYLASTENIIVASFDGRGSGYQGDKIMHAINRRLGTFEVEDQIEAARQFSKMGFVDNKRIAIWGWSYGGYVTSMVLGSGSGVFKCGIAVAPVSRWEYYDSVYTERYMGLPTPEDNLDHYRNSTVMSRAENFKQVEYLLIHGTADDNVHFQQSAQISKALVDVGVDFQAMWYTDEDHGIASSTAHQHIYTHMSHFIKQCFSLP
T3 sequence (P14740 37-767 limits assumed): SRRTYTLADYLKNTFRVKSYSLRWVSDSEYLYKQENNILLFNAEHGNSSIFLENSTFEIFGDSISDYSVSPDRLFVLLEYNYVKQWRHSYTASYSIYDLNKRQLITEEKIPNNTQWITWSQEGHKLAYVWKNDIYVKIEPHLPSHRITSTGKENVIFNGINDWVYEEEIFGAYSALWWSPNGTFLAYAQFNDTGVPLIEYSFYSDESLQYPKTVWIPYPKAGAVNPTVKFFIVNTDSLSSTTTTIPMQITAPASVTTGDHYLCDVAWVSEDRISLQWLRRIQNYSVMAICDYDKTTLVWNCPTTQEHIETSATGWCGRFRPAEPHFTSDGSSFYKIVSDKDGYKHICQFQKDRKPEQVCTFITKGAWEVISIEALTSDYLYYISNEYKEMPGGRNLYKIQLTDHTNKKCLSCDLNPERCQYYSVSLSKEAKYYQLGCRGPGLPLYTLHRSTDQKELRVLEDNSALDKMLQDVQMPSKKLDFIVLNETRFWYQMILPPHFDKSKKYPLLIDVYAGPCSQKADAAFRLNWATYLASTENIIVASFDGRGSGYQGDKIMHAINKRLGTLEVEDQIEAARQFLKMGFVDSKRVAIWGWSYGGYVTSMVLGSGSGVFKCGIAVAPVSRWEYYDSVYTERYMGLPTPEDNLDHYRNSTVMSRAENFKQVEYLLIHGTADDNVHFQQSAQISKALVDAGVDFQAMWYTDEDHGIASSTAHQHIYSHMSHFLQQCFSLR
T2 sequence (P27487 39-766 limits assumed): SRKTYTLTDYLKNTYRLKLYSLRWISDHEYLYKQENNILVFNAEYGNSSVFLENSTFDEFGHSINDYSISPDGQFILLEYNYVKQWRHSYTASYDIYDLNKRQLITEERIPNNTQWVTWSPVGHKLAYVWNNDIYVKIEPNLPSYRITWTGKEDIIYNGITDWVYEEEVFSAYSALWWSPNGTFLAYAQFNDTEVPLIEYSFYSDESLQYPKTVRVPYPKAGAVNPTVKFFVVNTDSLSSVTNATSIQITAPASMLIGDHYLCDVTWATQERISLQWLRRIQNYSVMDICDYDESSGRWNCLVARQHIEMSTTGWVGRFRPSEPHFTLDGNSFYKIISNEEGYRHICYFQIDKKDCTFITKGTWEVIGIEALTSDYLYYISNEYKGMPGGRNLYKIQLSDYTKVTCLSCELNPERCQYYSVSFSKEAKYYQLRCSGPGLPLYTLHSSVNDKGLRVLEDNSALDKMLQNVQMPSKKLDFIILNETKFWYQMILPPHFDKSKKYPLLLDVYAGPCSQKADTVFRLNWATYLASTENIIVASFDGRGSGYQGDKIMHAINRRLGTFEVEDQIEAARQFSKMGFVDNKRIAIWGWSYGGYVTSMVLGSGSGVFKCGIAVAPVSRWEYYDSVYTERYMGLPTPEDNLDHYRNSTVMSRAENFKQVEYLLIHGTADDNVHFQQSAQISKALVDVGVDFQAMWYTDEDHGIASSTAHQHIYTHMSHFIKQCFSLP

For the compound `N#C[C@@H]1CSCN1C(=O)CNC1CCCCC1` [Ex. 1, 3-[(cyclohexyl)amino]acetyl-4-cyano-(R)-thiazolidine monohydrochloride], the IC50 in assay [1] was 7 nM; against human plasma DPP-IV it was 10 nM; against rat plasma DPP-IV, 10 nM.
Consider `CC(C)OCCCNCC(=O)N1CSC[C@H]1C#N` [Ex. 2, 3-[(3-isopropoxypropyl)amino]acetyl-4-cyano-(R)-thiazolidine monohydrochloride], for which the IC50 in assay [1] worked out at 7 nM; on human plasma DPP-IV, 5 nM; at rat plasma DPP-IV, 1 nM.
For `CC(C)NCC(=O)N1CSC[C@H]1C#N` [Ex. 3, 3-[(isopropyl)amino]acetyl-4-cyano-(R)-thiazolidine monohydrochloride], the concentration for half-maximal inhibition (IC50) in assay [1] turned out to be 6 nM; against human plasma DPP-IV it was 3 nM; against rat plasma DPP-IV, 3 nM.
